Experimental data published in PubChem BioAssay (NCI).
“And” between values parts separate entries of the source, which are not always exact repeats. Equal values may be shown once.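 Dose response: 5 concentrations. Exposure: 48 h. Format: 96-well plates. Endpoint: linear interpolation; highest concentration if not reached. The concentration for 50% growth inhibition is given as GI50. TGI denotes the concentration required for complete inhibition of growth.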

Tests used:
Test in all cases: NCI anticancer screen, dose series, 48 h
CCRF-CEM leukemia = test system: CCRF-CEM leukemia
HS 578T breast = test system: HS 578T breast
K-562 leukemia = test system: K-562 leukemia
MCF7 breast = test system: MCF7 breast
NCI-H226 lung = test system: NCI-H226 lung
NCI-H23 lung = test system: NCI-H23 lung
RXF 393 renal = test system: RXF 393 renal
SK-MEL-2 melanoma = test system: SK-MEL-2 melanoma
U251 CNS = test system: U251 CNS
UO-31 renal = test system: UO-31 renal

SMILES	GI50 (CCRF-CEM leukemia)	TGI (CCRF-CEM leukemia) [µM]	GI50 (HS 578T breast)	TGI (HS 578T breast)	GI50 (K-562 leukemia)	TGI (K-562 leukemia) [µM]	GI50 (MCF7 breast)	TGI (MCF7 breast)	GI50 (NCI-H226 lung)	TGI (NCI-H226 lung)	GI50 (NCI-H23 lung)	TGI (NCI-H23 lung)	GI50 (RXF 393 renal) [µM]	TGI (RXF 393 renal) [µM]	GI50 (SK-MEL-2 melanoma)	TGI (SK-MEL-2 melanoma)	GI50 (U251 CNS)	TGI (U251 CNS) [µM]	TGI (UO-31 renal) [µM]	GI50 (UO-31 renal) [µM]
COC(=O)Nc1nc2ccc(C(=O)c3ccccc3)cc2[nH]1	0.398 µM and 0.458 µM	> 100	0.518 µM and 0.2 µM	> 100 µM	0.391 µM and 0.142 µM	> 56.3	0.318 µM and 0.204 µM	> 100 µM	1.05 µM and 0.441 µM	28.9 µM and > 100 µM	0.747 µM and 1.13 µM	> 100 µM	0.368	2.19	0.473 µM and 0.583 µM	22.8 µM and > 100 µM	0.5 µM and 0.398 µM	> 100	> 100	
CCCCCCCCCCCCCCCCOP(=O)([O-])OCC[N+](C)(C)C	1.09 µM and 9.72 µM		4.21 µM	18.9 µM and 40.7 µM		64.9	3.62 µM	16 µM and 59.1 µM	1.59 µM		3.17 µM	13.3 µM and 65.3 µM	0.427		2.36 µM	7.05 µM and 46.9 µM	1.05 µM			1.47
Cn1c(-c2ccccc2)c(/C=C/C2=[N+](C)c3ccccc3C2(C)C)c2ccccc21	1.18 µM	54.7	1.08 µM	16.6 µM	0.128 µM	5.3	0.817 µM	10.8 µM	2.35 µM	12.2 µM	0.784 µM	5.17 µM	2.55	12.6	1.13 µM	4.19 µM	0.46 µM	12.8	7.3	2.23
C[C@]12CC[C@H]3[C@@H](CC4SC(N)=NC45C/C(=N/NC(N)=O)CC[C@]35C)[C@@H]1CCC2=O (stereo partly drawn)	0.28 µM	1.62	2.08 µM	5.15 µM	1.81 µM	5.08	1.52 µM	3.14 µM	2.09 µM	4.91 µM	1.78 µM	3.32 µM	1.61	3.23	1.98 µM	4.58 µM	1.77 µM	3.22	2.88	1.52
O=CN1N=C(c2cccc(Nc3ccnc4cc(Cl)ccc34)c2)CC1c1ccccc1 (stereo not drawn)	0.31 µM	1.48	0.248 µM	3.4 µM	0.301 µM	10.5	0.311 µM	> 33 µM	3.32 µM	> 55.7 µM	0.551 µM	> 36.8 µM	0.336	3.58	0.258 µM	0.825 µM	0.358 µM	1.55	> 100	0.408
O=C(Nc1ccc(F)cc1)Nc1ccc(Br)c(C(F)(F)F)c1	2.27 µM	6.53	2.95 µM	9.31 µM	2.13 µM	11.5	2.29 µM	10.3 µM	2.73 µM	11.1 µM	2.04 µM	9.5 µM	2.66	8.28	2.38 µM	6.19 µM	2.14 µM	7.47	10.6	2.35
C=C1SC(=Nc2ccccc2Cl)N(C(=O)c2sc3ccccc3c2Cl)C12CCCCC2	5.41 µM	> 100	4.84 µM	> 100 µM	4.14 µM	> 100	3.95 µM	> 100 µM	40 µM	> 100 µM	4.43 µM	> 100 µM	15.2	88.7	15.8 µM	58.8 µM	4.42 µM	> 100	> 100	2.33
CCCCCCCC(=O)SCC/C=C/[C@@H]1CC(=O)NCc2nc(cs2)C2=N[C@@](C)(CS2)C(=O)N[C@@H](C(C)C)C(=O)N1	0.0265 µM	> 100	0.0183 µM	38 µM	0.0182 µM	> 100	0.0198 µM	> 100 µM	0.906 µM	22.2 µM	0.0399 µM	20.8 µM	< 0.0112	0.0695	0.0304 µM	0.597 µM	0.0318 µM	0.364	21.2	0.741
Nc1nc(SCc2ccccc2Cl)cc(C(=O)O)n1		> 100		> 100 µM		> 100		> 100 µM		> 100 µM		> 100 µM		> 100		> 100 µM		> 100	> 100	
Nc1nc2cc(CC[C@H]3C[C@@H](n4ccc5c(N)ncnc54)[C@H](O)[C@@H]3O)ccc2cc1Br	12.3 µM	> 100	14.1 µM	36.8 µM	1.38 µM	> 100	1.82 µM	19.1 µM	2.71 µM	26.8 µM	2.07 µM	23.9 µM	6.95	22.9	10.9 µM	25.1 µM	13 µM	29.8	18	2.92
C[C@H]1COCCN1c1cc(C2(S(=O)(=O)C3CC3)CC2)nc(-c2ccc(NC(=S)NCCO)cc2)n1	0.0323 µM	> 100	0.0109 µM	0.0643 µM	0.0498 µM	> 100	< 0.01 µM	18 µM	0.0237 µM	1.34 µM	0.036 µM	30.6 µM	< 0.0112	0.0689	0.0289 µM	0.517 µM	0.0524 µM	32.2	0.524	0.0272
CC1(C)OC(=O)C(C#N)=C1C[n+]1ccccc1		> 10		> 10 µM		> 10		> 10 µM		> 10 µM		> 10 µM		> 10		> 10 µM		> 10	> 10	
